Target: T1, ZmGlu1 (Zea mays, UniProt P49235)
T1 construct: gene GLU1; E. coli BL21 Star (DE3)
Assay: HPLC of released methyl anthranilate at […] nm, Michaelis-Menten fit
Type: biochemical
Conditions: 50 mM phosphate pH 6.0, 35 °C, 3 μM enzyme, 1.17-20 mM substrate

T1 sequence (P49235 55-566): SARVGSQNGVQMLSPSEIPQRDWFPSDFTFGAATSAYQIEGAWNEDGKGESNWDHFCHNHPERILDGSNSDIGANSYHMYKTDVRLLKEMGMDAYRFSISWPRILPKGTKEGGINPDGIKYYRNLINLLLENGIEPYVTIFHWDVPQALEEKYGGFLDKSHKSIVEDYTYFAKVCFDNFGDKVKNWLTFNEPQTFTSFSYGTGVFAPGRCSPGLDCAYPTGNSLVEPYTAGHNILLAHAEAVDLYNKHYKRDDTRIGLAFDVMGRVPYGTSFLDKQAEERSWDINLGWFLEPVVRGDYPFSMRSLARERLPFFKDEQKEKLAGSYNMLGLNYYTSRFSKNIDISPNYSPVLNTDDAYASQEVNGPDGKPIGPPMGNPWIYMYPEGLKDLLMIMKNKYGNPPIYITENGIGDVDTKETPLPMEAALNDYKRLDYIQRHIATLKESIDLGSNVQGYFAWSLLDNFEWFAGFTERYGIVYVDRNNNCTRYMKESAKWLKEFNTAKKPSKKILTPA

Km: 13.7 ± 1.22 mM
SMILES: COC(=O)c1ccccc1N[C@@H]1O[C@H](CO)[C@@H](O)[C@H](O)[C@H]1O [MANT‐N‐glucose, methyl anthranilate‐N‐β‐D‐glucopyranoside]

— PMC13447983, “Identifying and characterising a plant GH1 β‐glucosidase that exhibits hydrolytic activity on N‐linked glucopyranoside” (FEBS Open Bio, 2026)
